These results are taken from patent publication US8431596B2 (Cancer Research Technology Limited, priority 2007, dated 2013).

Molecules are shown by their SMILES. Bounds are passed on as bounds.

The target of the assay is T1, AXL (human catalytic domain) (Homo sapiens, UniProt P30530).
T1 construct: purchased Upstate Ltd. 14-512
T1 sequence (P30530 473-894): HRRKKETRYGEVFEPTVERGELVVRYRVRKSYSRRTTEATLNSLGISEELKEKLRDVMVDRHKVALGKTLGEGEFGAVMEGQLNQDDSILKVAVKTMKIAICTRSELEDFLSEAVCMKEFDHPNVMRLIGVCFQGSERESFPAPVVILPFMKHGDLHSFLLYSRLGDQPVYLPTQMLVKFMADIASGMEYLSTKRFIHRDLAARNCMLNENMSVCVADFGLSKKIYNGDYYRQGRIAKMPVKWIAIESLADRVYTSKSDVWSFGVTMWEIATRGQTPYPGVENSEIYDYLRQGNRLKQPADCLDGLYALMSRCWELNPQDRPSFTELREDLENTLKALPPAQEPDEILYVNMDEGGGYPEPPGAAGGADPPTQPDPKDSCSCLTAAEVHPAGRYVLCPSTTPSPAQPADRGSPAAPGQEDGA
Kind of assay: AXL (human catalytic domain) Enzyme Activity Assay (IMAP fluorescence polarisation). In kind it is biochemical. How it is done:
Biological Methods AXL (human catalytic domain) Enzyme Activity Assay Reagents
Kinase Assay Reaction Buffer: This consisted of 20 mM HEPES pH 7.0, 10 mM MgCl2, 1 mM DTT, […], 0.01% Triton X100 (v/v), and 0.01% BSA (w/v). All buffer components were purchased from Sigma-Aldrich at reagent grade or higher.
Kinase: Recombinant AXL isoform 1 (aa473-894 corresponding to Genbank Accession Number NP 068713) at 2 mg/mL (20.8 μM) was purchased from Upstate Ltd. (Product code 14-512, lot #28164U). The enzyme was stored at −80° C. and a working stock was prepared to a concentration of 30 nM by diluting 20.8 μM stock 1:693 in cold (4° C.) 1× Reaction Buffer. Final enzyme concentration in the assay was 15 nM.
Substrate: Fluorescein labelled CSK-tide 5FAM-[…]-NH2 was obtained from Molecular Devices (Product code R7270) and used at a working concentration of 200 nM by diluting the 100 μM stock 1:500 in 1× Reaction Buffer in a mix with the enzyme. A negative control (lacking enzyme) was prepared at the same concentrations. Final substrate concentration in the assay was 100 nM.
ATP: Supplied by Sigma (product code A-7699). A 100 mM ATP stock was prepared in […] and used at a working concentration of 375 μM by diluting the 100 mM stock 1:266.6 in Reaction Buffer. Final ATP concentration in the assay was 150 μM; this concentration represents the KM.ATP for this enzyme calculated in this assay.
IMAP Reagents: IMAP screening express kit was obtained from Molecular Devices (product code R8127). The binding reagent was gently re-suspended before diluting by 1:1000 in buffer (Binding Buffer is supplied as a 5× stock and so was diluted with water prior to use—this assay used 40% buffer A and 60% buffer B) and then vortexed before addition to wells. The binding reagent was used at a final dilution of 1:1333.
1 μL samples of test compounds in 10% DMSO/water were added to “test” wells by dry-spotting using a Matrix Platemate Plus. 5 μL Kinase/Substrate in Reaction Buffer were added to columns 1-22 of a Corning black low binding 384 well #6754 (90 μL volume) microplate to give 12 nM and 100 nM reaction concentration respectively. 5 μL substrate in Reaction Buffer was added to columns 23 and 24 to give 100 nM reaction concentration. 4 μL ATP in Reaction Buffer was added to all wells to give 150 μM reaction concentration. The reaction mixture was then incubated at room temperature for 60 minutes. The incubation period was followed by the addition of 20 μL IMAP Binding Reagent in Binding Buffer to all wells. The IMAP reaction detection was further incubated at room temperature overnight. The FP on a Tecan Ultra Plate reader was recorded as a single read at Ex485 Em535.
Percentage inhibition was calculated based on activity of the test sample minus the average values in the blank wells relative to the average values measured in control wells minus the average values in the blank wells.
IC50 values were calculated from 10 point dose sigmoid ‘dose-response’ curves using XIfit software (IDBS Inc, USA). Data were fitted to a 4 parameter logistic model/sigmoidal dose response defined by the following equation:
[formula] where: • A=fit minimum (locked to 0); • B=fit maximum (locked to 100); • C=fit midpoint (pre-fit to 1); and • D=slope at linear portion of curve, hillslope (pre-fit to 0.1).
The value for C represents the IC50 of the test compound.
A general note: Fluorescence polarisation rises when a labelled molecule tumbles more slowly, as on binding a larger partner.

Setting [1] is: further data set (WW-001 through WW-169, XX-001 through XX-469, YY-001 through YY-016, ZZ-001 through ZZ-003), 150 μM ATP.
Setting [2] is: first data set, recombinant AXL isoform 1 aa473-894, 150 μM ATP.

By IC50 is commonly meant the concentration that gives 50% inhibition. Under setting [1], `CCOc1ccc(-c2nccc3nc(Nc4ccc(OCCN5CCCC5)c(OC)c4)nn23)cc1` [YY-006] registered an IC50 of 0.1 to 1 µM.

With `CCN(CC)CC(=O)Nc1cccc(Nc2nc3cccc(-c4ccc5c(c4)OCCO5)n3n2)c1` [XX-120], under setting [1], the IC50 fell in the range of 0.1 to 1 µM.

For `CC(c1ccc(-c2cccc3nc(Nc4ccc(OCCN5CCCC5)cc4)nn23)cc1)N(C)C` (stereo not shown) [XX-248], the IC50 under setting [1] fell in the range of 0.1 to 1 µM.

`c1cncc(CNc2cccc(-c3cccc4nc(Nc5ccc(OCCN6CCCC6)cc5)nn34)c2)c1` [XX-442] had a half-maximal inhibitory concentration (IC50) under setting [1] of 0.1 to 1 µM.

Take `COc1ccccc1-c1cccc2nc(Nc3ccc(OCCN4CCCC4)cc3)nn12` [XX-194]: the IC50 under setting [1] lay in the range of 1 to 10 µM.

In the case of `COc1ccc(-c2cccc3nc(Nc4ccc(N5CCOCC5)cc4)nn23)cc1` [XX-024], the concentration for half-maximal inhibition (IC50) under setting [2] was in the range of 1 to 10 µM and the IC50 under setting [1] was ≤ 0.1 µM.

As for `O=C(Nc1ccc(-c2cccc3nc(Nc4ccc(OCCN5CCCC5)cc4)nn23)cc1)c1ccccc1` [XX-221, N-(4-{2-[4-(2-Pyrrolidin-1-yl-ethoxy)-phenylamino]-[1,2,4]triazolo[1,5-a]pyridin-5-yl}-phenyl)-benzamide], the IC50 under setting [1] is 1 to 10 µM.

The compound `COc1ccc(-c2cccc(-c3cccc4nc(Nc5ccc(OCCN6CCCC6)cc5)nn34)c2)cc1` [XX-468] yielded an IC50 under setting [1] of 1 to 10 µM.

Under setting [1], `c1cc(OCc2ccncc2)cc(-c2cccc3nc(Nc4ccc(OCCN5CCCC5)cc4)nn23)c1` [XX-332] displayed an IC50 of 0.1 to 1 µM.

As to `Cc1cc(Cn2cc(-c3cccc4nc(Nc5ccc(OCCN6CCCC6)cc5)nn34)cn2)no1` [XX-305], the IC50 under setting [1] is 0.1 to 1 µM.

Regarding `CCCCS(=O)(=O)NCc1cccc(-c2cccc3nc(Nc4ccc(OCCN5CCCC5)cc4)nn23)c1` [XX-324, Butane-1-sulfonic acid 3-{2-[4-(2-pyrrolidin-1-yl-ethoxy)-phenylamino]-[1,2,4]triazolo[1,5-a]pyridin-5-yl}-benzylamide], the concentration for half-maximal inhibition (IC50) under setting [1] lay in the range of 1 to 10 µM.

`CCN(CC)CCOc1cccc(Nc2nc3cccc(-c4ccc(N(C)C)c(C)c4)n3n2)c1` [XX-147] yielded an IC50 under setting [1] of 0.1 to 1 µM.

On to `c1coc(CSCCn2cc(-c3cccc4nc(Nc5ccc(OCCN6CCCC6)cc5)nn34)cn2)c1` [XX-427], for which, under setting [1], the IC50 is 0.1 to 1 µM.

For the compound `OCc1cccc(-c2cccc3nc(Nc4ccc(OCCN5CCCC5)cc4)nn23)c1` [XX-090, (3-{2-[4-(2-Pyrrolidin-1-yl-ethoxy)-phenylamino]-[1,2,4]triazolo[1,5-a]pyridin-5-yl}-phenyl)-methanol], the IC50 under setting [1] is ≤ 0.1 µM.

For the compound `COc1ccc(-c2cccc3nc(Nc4ccc(OCCCN5C(=O)c6ccccc6C5=O)cc4)nn23)cc1` [XX-039, 2-(3-{4-[5-(4-methoxy-phenyl)-[1,2,4]triazolo[1,5-a]pyridin-2-ylamino]-phenoxy}-propyl)-isoindole-1,3-dione], the IC50 under setting [1] is 0.1 to 1 µM.

As to `c1cc(-c2ccc3occc3c2)n2nc(Nc3ccc(OCCN4CCCCC4)cc3)nc2c1` [XX-050], the IC50 was < 1 µM under setting [2] and ≤ 0.1 µM under setting [1].

On to `Clc1cccc(CNc2ccc(-c3cccc4nc(Nc5ccc(OCCN6CCCC6)cc5)nn34)cc2)c1` [XX-223, {5-[4-(3-Chloro-benzylamino)-phenyl]-[1,2,4]triazolo[1,5-a]pyridin-2-yl}-[4-(2-pyrrolidin-1-yl-ethoxy)-phenyl]-amine], for which the IC50 under setting [1] was 1 to 10 µM.

Take `COc1ccc(-c2cccc3nc(NC(=O)C4CC4(F)F)nn23)cc1` (stereo not shown) [WW-125]: the IC50 is, setting by setting: under setting [2], 1 to 10 µM; under setting [1], 1 to 10 µM.

Compound `C=Cn1cc(-c2cccc3nc(Nc4ccc(OCCN5CCCC5)cc4)nn23)cn1` [XX-328] registered an IC50 under setting [1] of 0.1 to 1 µM.

In the case of `Cc1cc(-c2ccc3c(c2)OCCO3)n2nc(Nc3ccc(OCCN4CCCC4)cc3)nc2c1` [XX-311, [5-(2,3-Dihydro-benzo[1,4]dioxin-6-yl)-7-methyl-[1,2,4]triazolo[1,5-a]pyridin-2-yl]-[4-(2-pyrrolidin-1-yl-ethoxy)-phenyl]-amine], the 50% inhibitory concentration (IC50) under setting [1] was in the range of 0.1 to 1 µM.

Turning to `CCN(CC)CCNc1ccc(Nc2nc3cccc(-c4ccc5c(c4)OCCO5)n3n2)cc1` [XX-127], under setting [1], the IC50 is ≤ 0.1 µM.

Turning to `CCCCCCS(=O)(=O)n1cc(-c2cccc3nc(Nc4ccc(OCCN5CCCC5)cc4)nn23)cn1` [XX-379], under setting [1], the half-maximal inhibitory concentration (IC50) was in the range of 0.1 to 1 µM.

Take `O=C(Nc1nc2cccc(-c3ccnc(F)c3)n2n1)C1CC1` [WW-030]: the IC50 by setting is: under setting [2], 1 to 10 µM; under setting [1], 1 to 10 µM.

The compound `CC(C)Oc1ccc(-c2cccc3nc(Nc4ccc(OCCCN5CCCCC5)cc4)nn23)cc1` [XX-420] registered an IC50 under setting [1] of 0.1 to 1 µM.

In the case of `ClCc1cccc(-c2cccc3nc(Nc4ccc(OCCN5CCCC5)cc4)nn23)c1` [XX-341, [5-(3-Chloromethyl-phenyl)-[1,2,4]triazolo[1,5-a]pyridin-2-yl]-[4-(2-pyrrolidin-1-yl-ethoxy)-phenyl]-amine], the concentration for half-maximal inhibition (IC50) under setting [1] was in the range of 0.1 to 1 µM.

Turning to `CC(C)Oc1ccc(-c2cccc3nc(NC(=O)C4CC4)nn23)cc1` [WW-150], the IC50 is 1 to 10 µM under setting [2] and 1 to 10 µM under setting [1].

As to `CC(C)(C)NC(=O)NCc1cccc(-c2cccc3nc(Nc4ccc(OCCN5CCCC5)cc4)nn23)c1` [XX-372], the IC50 under setting [1] lay within 0.1 to 1 µM.

For the compound `COc1ccc(-c2nccc3nc(Nc4ccc(OCCN5CCCCC5)cc4)nn23)cc1` [YY-002], the IC50 under setting [2] was < 1 µM and the IC50 under setting [1] was ≤ 0.1 µM.

Compound `CS(=O)(=O)Nc1cccc(-c2cccc3nc(Nc4ccc(OCCN5CCCC5)cc4)nn23)c1` [XX-224] gave a 50% inhibitory concentration (IC50) under setting [1] of 0.1 to 1 µM.

`O=C(Nc1nc2cccc(-c3ccc(CO)cc3)n2n1)C1CC1` [WW-027]: the IC50 is, setting by setting: under setting [2], 1 to 10 µM; under setting [1], 1 to 10 µM.

Under setting [1], `c1cc(NCc2nc3c(s2)CCCC3)cc(-c2cccc3nc(Nc4ccc(OCCN5CCCC5)cc4)nn23)c1` [XX-447] yielded an IC50 of 0.1 to 1 µM.

Under setting [1], `c1cc(-c2ccc(-c3ccsc3)cc2)n2nc(Nc3ccc(OCCN4CCCC4)cc3)nc2c1` [XX-186] had an IC50 of 0.1 to 1 µM.

As for `O=C(Nc1nc2cccc(-c3cc[nH]c3)n2n1)C1CC1` [WW-149], the concentration for half-maximal inhibition (IC50) lay within 1 to 10 µM under setting [2] and 1 to 10 µM under setting [1].

Take `CCN(CC)CCNc1ccc(-c2cccc3nc(NC(=O)C4CC4)nn23)cc1` [WW-153, Cyclopropanecarboxylic acid {5-[4-(2-diethylamino-ethylamino)-phenyl]-[1,2,4]triazolo[1,5-a]pyridin-2-yl}-amide]: the IC50 runs as follows: under setting [2], 1 to 10 µM; under setting [1], 1 to 10 µM.

Regarding `COc1cccc(Cn2cc(-c3cccc4nc(Nc5ccc(OCCN6CCCC6)cc5)nn34)cn2)c1` [XX-369], the IC50 under setting [1] was 0.1 to 1 µM.

Under setting [1], `CC(c1ccccc1)n1cc(-c2cccc3nc(Nc4ccc(OCCN5CCCC5)cc4)nn23)cn1` (stereo not shown) [XX-306] showed an IC50 of 0.1 to 1 µM.

Under setting [1], `Cc1noc(C)c1S(=O)(=O)n1cc(-c2cccc3nc(Nc4ccc(OCCN5CCCC5)cc4)nn23)cn1` [XX-385] showed an IC50 of 0.1 to 1 µM.

`COc1ccc(-c2cccc3nc(Nc4ccc(OCCCN)cc4)nn23)cc1` [XX-041, [4-(3-Amino-propoxy)-phenyl]-[5-(4-methoxy-phenyl)-[1,2,4]triazolo[1,5-a]pyridin-2-yl]-amine]: the IC50 reads like this: under setting [2], < 1 µM; under setting [1], 0.1 to 1 µM.

As for `O=S(=O)(C1CC1)n1cc(-c2cccc3nc(Nc4ccc(OCCN5CCCC5)cc4)nn23)cn1` [XX-375], the IC50 under setting [1] was ≤ 0.1 µM.
